Patent US4542145A, “Substituted N-[(1H-1,2,4-triazol-1-yl)-alkyl]heteroarylcarboxamides” (American Cyanamid Company, priority 1984, dated 1985)
Counter-ions that a name gives are not always drawn.

Experiments:
thromboxane synthetase = molecular target: T1, thromboxane synthetase (Rattus norvegicus, UniProt P49430); test: Inhibition of thromboxane (TXB2) formation in washed SHR platelets, RIA; type: cell-based, spontaneously hypertensive rats (Okamoto-Aoki); conditions: 10 min, Dose 10^-4 (unit inferred), about 10 minutes at about 37° C.
T1 construct: The platelets were isolated by centrifuging the PRP; endogenous in cells; host or cells: washed platelets from arterial blood of Okamoto-Aoki spontaneously hypertensive rats (Taconic Farms)
T1 sequence (P49430 1-533): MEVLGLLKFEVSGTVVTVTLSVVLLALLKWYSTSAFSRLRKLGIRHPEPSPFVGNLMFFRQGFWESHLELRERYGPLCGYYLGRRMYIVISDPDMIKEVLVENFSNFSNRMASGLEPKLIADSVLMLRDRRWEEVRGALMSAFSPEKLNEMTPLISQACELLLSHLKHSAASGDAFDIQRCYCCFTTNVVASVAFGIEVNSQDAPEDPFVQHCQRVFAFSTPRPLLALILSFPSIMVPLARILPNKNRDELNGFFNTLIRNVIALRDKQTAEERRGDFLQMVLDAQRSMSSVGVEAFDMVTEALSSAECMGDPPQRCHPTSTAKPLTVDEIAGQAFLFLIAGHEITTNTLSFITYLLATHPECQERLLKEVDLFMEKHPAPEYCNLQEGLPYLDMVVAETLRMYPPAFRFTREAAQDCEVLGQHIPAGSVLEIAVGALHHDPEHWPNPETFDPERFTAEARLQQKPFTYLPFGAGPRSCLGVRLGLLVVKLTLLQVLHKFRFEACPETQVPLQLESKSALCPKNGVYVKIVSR
Method: Under urethan anesthesia, about 10 μl arterial blood was collected in approximately 1 ml. of about 3.2% sodium citrate in a polystyrene tube from Okamoto-Aoki spontaneously hypertensive rats (SHR) (Taconic Farms, Germantown, N.Y.) between 19 and 24 weeks in age. The blood was diluted with about 3 ml of cold saline and centrifuged at room temperature for about 15 minutes at 460 xg. The platelet rich plasma (PRP) was separated. The platelets were isolated by centrifuging the PRP for about 10 minutes at 1060 xg and were washed in about 4 ml of cold oxygenated Krebs phosphate buffer, about pH 7.4. The chilled platelets recovered from centrifuging at 800 xg for about 10 minutes were resuspended in oxygenated Krebs phosphate buffer and diluted to contain 4.5-6.0×10^4 platelets/μl.
The inhibition of thromboxane (TX) formation was studied by determining the concentration of thromboxane B2 (TXB2), the stable hydrolysis product of TXA2. Assay samples, prepared on ice, contained about 200 μl platelet suspension, about 50 μl saline and about 50 μl vehicle or drug under study. The samples were incubated for about 10 minutes at about 37° C. in a metabolic shaker. The reaction was terminated by immersing the tubes in an ice bath and adding about 50 μl of approximately 0.5 M citric acid. The samples were centrifuged for about 10 minutes in a refrigerated centrifuge and the supernatants thus obtained were decanted and stored at about-20° C. The TXB2 content for each sample was determined by a direct radioimmunoassay (RIA) utilizing a TXB2 specific RIA kit purchased from New England Nuclear, Boston, Mass. and expressed as pg TXB2 formed minute^-1 sample^-1, from which the percent inhibition of TXB2 formation was calculated.

[1] = test system: spontaneously hypertensive rats; test: Hypotensive activity in spontaneously hypertensive rats (mean arterial blood pressure); type: in vivo, spontaneously hypertensive rats (Okamoto strain); conditions: oral gavage, about 100 mg/kg or less, two doses 24 h apart, 0.9% NaCl loading with first; about 28 hours after initial dose; SHR average MABP 170±1.5 mm of mercury; (No. of rats) in parentheses
Method: The novel compounds of the present invention are active hypotensive agents and were tested for hypotensive activity by the method of P. S. Chan and D. Poorvin, Clinical and Experimental Hypertension, 1 (6), 817-830 (1979). Male, 16 week old, spontaneously hypertensive rats of the Okamoto strain, from Taconic Farms, Germantown, N.Y., having an average mean arterial blood pressure of 170±1.5 mm of mercury are used in the test. One to 3 rats are used per test compound. A rat is dosed by gavage with a test compound, suspended in approximately 2% pre-boiled starch at a concentration of about 50 mg/ml, at a dose of about 100 mg/kg of body weight or less, with approximately 0.9% sodium chloride loading at a dose of about 25 ml/kg of body weight. A second identical dose of the test compound, without sodium chloride loading is given about 24 hours later. At about 28 hours after the initial dose the mean arterial blood pressure is measured by the method of Chan and Poorvin vide supra. The procedure is repeated in a second and third rat when necessary.

inhibition at 100 µM (thromboxane synthetase)	Compound	MABP (mean arterial blood pressure) [1]
90%	O=C(NCCn1cncn1)c1sc2ccccc2c1Cl [3-Chloro-N-[2-(1H-1,2,4-triazol-1-yl)ethyl]-benzo[b]thiophene-2-carboxamide]	
90%	O=C(NCCCCn1cncn1)c1sc2ccccc2c1Cl [3-Chloro-N-[4-(1H-1,2,4-triazol-1-yl)-butyl]benzo[b]thiophene-2-carboxamide]	119 m Hg
60%	O=C(NCCCn1cncn1)c1sc2ccccc2c1Cl [3-chloro-N--[3-(1H--1,2,4-triazol-1-yl)propyl]-benzo[b]thiophene-2-carboxamide]	137 m Hg
86%	O=C(NCCCn1cncn1)c1cc(Br)c(Br)s1 [4,5-dibromo-N--[3-(1H--1,2,4-triazol-1-yl)-propyl]-2-thiophene-carboxamide]	137 m Hg
70%	O=C(NCCCn1cncn1)c1ccc([N+](=O)[O-])o1 [5-Nitro-N-[3-(1H-1,2,4-triazol-y)propyl]-2-furancarboxamide]	132 m Hg
61%	O=C(NCCCn1cncn1)c1ccc(Br)o1 [5-bromo-N--[3-(1H--1,2,4-triazol-1-yl)propyl]-2-furancarboxamide]	107 m Hg
64%	O=C(NCCCn1cncn1)c1ccc(Cl)s1 [5-chloro-N--[3-(1H--1,2,4-triazol-1-yl)propyl]-2-thiophenecarboxamide]	135 m Hg
56%	Cc1ccc(C(=O)NCCCn2cncn2)s1 [5-methyl-N--[3-(1H--1,2,4-triazol-1-yl)propyl]-2-thiophenecarboxamide]	
84%	O=C(NCCCn1cncn1)c1cc2ccccc2o1 [N--[3-(1H--1,2,4-triazol-1-yl)propyl]-2-benzo-furancarboxamide]	135 m Hg
	O=C(NCCCn1cncn1)c1ccco1 [N--[3-(1H--1,2,4-triazol-1-yl)propyl]-2-furancarboxamide, fumarate]	116 m Hg
30%	O=C(NCCCn1cncn1)c1cccs1 [N--[3-(1H--1,2,4-triazol-1-yl)propyl]-2-thio-phenecarboxamide]	130 m Hg
68%	O=C(C=Cc1cccs1)NCCCn1cncn1 [N--[3-(1H--1,2,4-triazol-1-yl)propyl]-3-(2-thien-yl)-2-propenamide]	
55%	O=C(NCCCn1cncn1)c1ccoc1 [N--[3-(1H--1,2,4-triazol-1-yl)propyl]-3-furan-carboxamide]	135 m Hg
65%	O=C(NCCCn1cncn1)c1ccco1 [N-[3-(1H-1,2,4-Triazol-1-yl)propyl]-2-furancarboxamide]	
